Paper PMC12535076, “Neurotherapeutic effects of Vutiglabridin as a Paraoxonase-2 modulator in preclinical models of Parkinson’s disease” (Molecular Neurodegeneration, 2025)

How the values were obtained:
[1] = test system: PON2-KD and wild-type C57BL/6 mice; test: MPTP model in wild-type and PON2-knockdown mice; format: in vivo, mouse
Procedure: Animals were allowed at least 1 week of acclimatization before being subjected to the study and were housed in a regulated environment with a 12-h/12-h light/dark cycle. Food and water were provided ad libitum. The animal experiment was carried out in accordance with the National Institutes of Health Guide for the Care and Use of Laboratory Animals (NIH Publications No. 80–23; revised 1996). All procedures for handling mice were carried out in accordance with “Principles of Laboratory Animal Care” and the Animal Care and Use guidelines of Kyung Hee University, Seoul, Korea (KHSASP-20-163).
MPTP was dissolved in distilled water and injected intraperitoneally for five days from day 10 of the 21-day experiment period. Vuti or rasagiline was administered via oral gavage for 21 days. Vehicles for both Vuti and MPTP (distilled water) were administered to all mice. Mice were randomly divided for all studies. For the first set of studies shown in Fig. 3, each group consisted of 5 animals.
To determine forelimb and hindlimb motor coordination and balance, we performed the rotarod test as described previously. Also, the pole test was performed to measure bradykinesia. […] On day 20, the time spent on the rotating bar at 20 rpm, which was defined as the latent period, was recorded. Performance was recorded as 300 s if the latent period exceeded 300 s. […] The time to land down and place four fee on the floor was recorded as the time for locomotion activity (T-LA). […]
Free-floating brain sections were processed with the avidin-biotin peroxidase complex (ABC) complex (Vector Laboratories, Burlingame, CA, USA) method. […] The immunoperoxidase signals of TH was detected by incubating sections with 0.5 mg/ml 3,3′-diaminobenzidine (Sigma, St. Louis, MO, USA) in 0.1 M PB containing 0.003% H2O2. […] TH-positivity in the ST was measured by the optical density of TH-positive fibers at x40 magnification using ImageJ software (National Institutes of Health, Bethesda, MD, USA). […] (5 sections/series) were counted at x100 magnification as previously described. […]

[2] = molecular target: T1, PON2 (Mus musculus, UniProt Q62086); test: PON2 activity assay (esterase and lactonase) in A53T-infected astrocytes; format: cell-based; details: primary cultured astrocytes infected with A53T virus, Vuti 24 h
T1 construct: we infected a primary cultured cortical astrocytes with AAV-CMV-αsyn-A53T virus; endogenous in cells; host or cells: primary cultured cortical astrocytes infected with AAV-CMV-αsyn-A53T
Procedure: To assess PON2 activity following Vuti treatment, we infected a primary cultured cortical astrocytes with AAV-CMV-αsyn-A53T virus. Five days post-infection, we treated the cells with Vuti for 24 h and conducted esterase and lactonase assays. For the esterase activity evaluation, reactions were initiated by adding 1 mM p-nitrophenyl acetate (pNPA) to the PON2 activity assay buffer. Enzymatic hydrolysis was monitored by measuring the absorbance at 412 nm. For lactonase activity, the reactions were initiated with 1 mM thio-butyrolactone (TBBL) and 1 mM 5,5’-dithiobis(2-nitrobenzoic acid) (DTNB) in the PON2 activity assay buffer, with absorbance measured at 420 nm to monitor enzymatic hydrolysis.

[3] = molecular target: T2, MAO-B (Homo sapiens, UniProt P27338); test: HRP/Amplex red based MAO-B enzyme activity assay; format: biochemical; details: read-out: IC50, MAO-B assay, HRP/AR method
T2 sequence (P27338 1-520): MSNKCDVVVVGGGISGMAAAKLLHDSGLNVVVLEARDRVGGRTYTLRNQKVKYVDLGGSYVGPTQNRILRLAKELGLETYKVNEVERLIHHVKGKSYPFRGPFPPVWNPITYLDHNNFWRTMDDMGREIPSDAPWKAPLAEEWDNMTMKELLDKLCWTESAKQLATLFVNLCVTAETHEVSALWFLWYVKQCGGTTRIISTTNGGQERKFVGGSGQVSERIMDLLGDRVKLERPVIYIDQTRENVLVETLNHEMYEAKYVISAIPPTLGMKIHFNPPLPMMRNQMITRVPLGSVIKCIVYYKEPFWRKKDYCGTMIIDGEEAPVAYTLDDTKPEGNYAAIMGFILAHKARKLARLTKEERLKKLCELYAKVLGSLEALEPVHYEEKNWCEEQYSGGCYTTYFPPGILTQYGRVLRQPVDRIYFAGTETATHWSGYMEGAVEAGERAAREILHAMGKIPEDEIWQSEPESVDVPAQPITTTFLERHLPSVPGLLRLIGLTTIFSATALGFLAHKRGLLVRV
Procedure: MAO-A or MAO-B enzyme solutions were prepared by diluting 10 µL of a 2.5 mg/mL MAO-A or MAO-B stock into 10 mL of 50 mM sodium phosphate buffer (pH 7.4). A substrate assay mixture was then prepared by combining benzylamine (for MAO-B) or tyramine (for MAO-A) from a 100 mM stock (200 µL in 10 mL phosphate buffer, final concentration 1 mM) with 100 µL of a 20 mM AR reagent stock (final concentration 0.1 mM) and 100 µL of a 200 U/mL HRP stock (final concentration 1 U/mL) in 10 mL phosphate buffer. […] Next, 50 µL of the substrate assay mixture was added, and the reaction was carried out at 37 °C for 60 min. The production of resorufin was quantified by fluorescence measurement (excitation at 540 nm and emission at 580 nm).

CCOc1ccc(C2COc3c(ccc4c3CCC(C)(C)O4)C2)c(O)c1 (centres unmarked) [Vuti, Vutiglabridin]
neuroprotective effects in PON2-KD mice ([1]; PON2-KD mice, MPTP, Vuti 50 mg/kg oral for three weeks): absent | motor behavior, dopaminergic neuronal cell count and fiber density without MPTP ([1]; non-MPTP-injected wild-type mice, 50 mg/kg Vuti, vs vehicle-only): no changes | MPTP-induced damage to motor behaviors and dopaminergic neurons in wild-type mice ([1]; wild-type mice, MPTP, Vuti 50 mg/kg for three weeks): significantly attenuated | PON2 esterase and lactonase activities [2]: increased | IC50 [3]: 425 µM
